Measurements: patent publication US12459953B2, “TREM2 modulators” (Muna Therapeutics ApS, priority 2024, dated 2025)

Target: T1, Human TREM2 (Homo sapiens, UniProt Q9NZC2)
T1 construct: expressed in transfected cells
Experiment: Human TREM2 activity by cellular phosphorylation of Syk (AlphaLISA SureFire Ultra p-SYK) in HEK293/DAP12+TREM2 stable cell line
Assay type: cell-based
Conditions: HEK293/DAP12+TREM2 cells; for Emax: maximal response relative to the maximal response of the reference agonist (8-(4-chloro-2-fluorophenyl)-2,3-dimethyl-6-[(2S)-2-(1-methyl-1H-pyrazol-4-yl)morpholin-4-yl]-3H,4H-[1,3]diazino[5,4-d]pyrimidin-4-one); for EC50: phospho-Syk AlphaScreen signal, 30 min incubation, concentration giving 50% of maximal response
Text: Human TREM2, in vitro Measurement of Triggering Receptor Expressed on Myeloid Cells 2 activity using cellular phosphorylation of Spleen Tyrosine Kinase (“Syk”) Assay
HEK-293 cells were co-transfected with separate plasmids encoding TREM2 and DAP12 to generate a stable cell line. After antibiotic selection, functional clone pool analysis and two successive limiting dilutions, the final clone
“HEK293/DAP12+TREM2” underwent a qPCR analysis and a pharmacological validation.
TREM2 signaling through DAP12 was monitored in the HEK293/DAP12+TREM2 stable cell line by measuring the phosphorylation levels of the Syk kinase using the commercially available AlphaLISA SureFire Ultra p-SYK (Tyr525/526) Assay Kit (PerkinElmer #ALSU-PSYK), based on the Perkin Elmer AlphaScreen/AlphaLISA technology.
Compounds are transferred to the test plate and tested in full dose response, 8 concentrations in quadruplicate data points. Compound serial dilutions were performed at Cybi-Felix instrument in 100% DMSO and the dose response curves were assembled in automated fashion in 384MPT at Hamilton STARIet instrument. All the stock solutions were prepared at 20 mM in 100% DMSO. For compounds testing, the starting concentration was 100 μM, dilution steps 1:6. A different concentration's range was adapted for compound's activity based on the preliminary results. Finally, a 384MPT reformatted for all compounds at 8 concentrations, quadruplicates, was used as “mother to child” process with a CyBi®-Well dispenser in which 1 μL of each compound was moved into a destination plate pre-filled with 65.6 μL of EMEM cell culture medium (BIOWHITTAKER_cat.BE12-125F), thus obtaining 3× concentrated compounds working solution. In columns 1-2 and 23-24 the control wells were added. In particular, dose response curves of a reference control agonist were included in column 1 and 24 as reference control agonist (Reference control agonists used include Human TREM2 polyclonal Antibody AF1828: R&D Systems; Human TREM2 monoclonal Antibody MAB1828: R&D Systems). The dose response curves were tested starting at 30 μM, dilution step 1:6. Both “source” compound plate and “destination” compound plate were barcoded and a relationship between the two plates was thus generated.
HEK293/DAP12+TREM2 cells were cultured in EMEM medium supplemented with IX Penicillin/Streptomycin (BIOWHITTAKER_cat.DE17-602E), ULTRAGLUTAMINE I 200 mM, 10% Fetal Bovine Serum plus antibiotics referred to as “HEK293 Culture Medium”. The day before the experiment, cells were detached by gentle wash with DPBS, followed by 5 min incubation at 37° C. with Trypsin solution. Cells were then diluted in HEK293 Culture Medium without antibiotics, counted and seeded into 384-well poly-D-Lysine coated microplates black/clear bottom (GREINER 781946) at a density of 10,000 cells/well in 25 μL/well by the use of a MATRIX WellMate dispenser. Plates were placed into a humidified cell culture incubator at 37° C. with 5% CO2 until the experimental day. 20-24 hours after seeding mature medium was removed and replaced with 10 μL/well of EMEM cell medium supplemented with 0.1% Pluronic F-68 non-ionic surfactant (Thermofisher, 24040032), referred to as “Assay Buffer”, using the CyBi®-Well instrument. Then 5 μL/well of Assay Buffer containing 3× concentrated test compounds or the reference control agonist (in 0.5% final DMSO concentration) were added to the cells with the CyBi®-Well instrument. Cell plates were incubated for 30 min into a humidified cell culture incubator at 37° C. with 5% CO2,then the medium was removed by manually discard. 20 μL/well of lysis buffer were dispensed using the CyBi®-Well instrument and plates were incubated for 10 min at room temperature on a plate shaker (350 rpm). Then, 10 μL/well of lysate were transferred to the Alpha plates. The CyBi®-Well instrument was used to dispense 5 μL/well of AlphaLISA Acceptor Bead Solution in IX Immunoassay buffer (Perkin Elmer ALOOOF). […]

T1 sequence (Q9NZC2 19-230): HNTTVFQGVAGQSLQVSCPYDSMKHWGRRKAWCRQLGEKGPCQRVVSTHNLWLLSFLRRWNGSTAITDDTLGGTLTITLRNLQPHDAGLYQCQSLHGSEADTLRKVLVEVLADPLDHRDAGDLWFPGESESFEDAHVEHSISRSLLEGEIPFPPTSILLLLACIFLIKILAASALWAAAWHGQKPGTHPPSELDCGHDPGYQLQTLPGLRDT
T1 sequence (O43914 22-113 partner): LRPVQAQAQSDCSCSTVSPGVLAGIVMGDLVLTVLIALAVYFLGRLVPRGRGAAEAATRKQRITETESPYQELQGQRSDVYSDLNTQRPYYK

Row | Emax | EC50 | Compound
1 | 75 to 110% | 10 to 100 nM | C[C@@H]1CN(c2nc(-c3ccc(F)cc3F)c3ncn(C)c(=O)c3n2)C[C@H](c2cnn(C3CC3)c2)O1
2 | 75 to 110% | 1 to 10 nM | Cc1nc2c(-c3ccc(F)cc3F)nc(N3C[C@@H](C)O[C@@H](c4cnn(C5CC5)c4)C3)nc2c(=O)n1C
3 | 75 to 110% | < 1 nM | COc1ccc(-c2nc(N3C[C@@H](C)O[C@@H](c4cnn(C5CC5)c4)C3)nc3c(=O)n(C)c(C(F)(F)F)nc23)c(F)c1 (single isomer, unassigned) [Example 4]
4 | > 110% | < 1 nM | C[C@@H]1CN(c2nc(-c3ccc(C#N)cc3F)c3nc(C(F)(F)F)n(C)c(=O)c3n2)C[C@H](c2cnn(C3CC3)c2)O1 (single isomer, unassigned) [Example 5A]
5 | > 110% | 1 to 10 nM | C[C@H]1CN(c2nc(-c3ccc(C#N)cc3F)c3nc(C(F)(F)F)n(C)c(=O)c3n2)C[C@@H](c2cnn(C3CC3)c2)O1 (single isomer, unassigned) [Example 5B]
6 | 75 to 110% | 1 to 10 nM | C[C@@H]1CN(c2nc(-c3ccc(C#N)cc3F)c3nc(C(F)(F)F)n(C)c(=O)c3n2)C[C@H](c2cnn(C)c2)O1 (single isomer, unassigned) [Example 6A]
7 | 75 to 110% | 1 to 10 nM | C[C@H]1CN(c2nc(-c3ccc(C#N)cc3F)c3nc(C(F)(F)F)n(C)c(=O)c3n2)C[C@@H](c2cnn(C)c2)O1 (single isomer, unassigned) [Example 6B]
8 | > 110% | < 1 nM | Cn1cc([C@H]2CN(c3nc(-c4ccc(C#N)cc4F)c4nc(C(F)(F)F)n(C)c(=O)c4n3)CC(F)(F)O2)cn1 (single isomer, unassigned) [Example 7A]
9 | 75 to 110% | 1 to 10 nM | Cn1cc([C@@H]2CN(c3nc(-c4ccc(C#N)cc4F)c4nc(C(F)(F)F)n(C)c(=O)c4n3)CC(F)(F)O2)cn1 (single isomer, unassigned) [Example 7B]
10 | 75 to 110% | 10 to 100 nM | COc1cc([C@@H]2CN(c3nc(-c4ccc(C#N)cc4F)c4nc(C(F)(F)F)n(C)c(=O)c4n3)CCO2)ccn1 (single isomer, unassigned) [Example 8A]
11 | 75 to 110% | < 1 nM | COc1cc([C@H]2CN(c3nc(-c4ccc(C#N)cc4F)c4nc(C(F)(F)F)n(C)c(=O)c4n3)CCO2)ccn1 (single isomer, unassigned) [Example 8B]
12 | 75 to 110% | < 1 nM | COc1cc([C@@H]2CN(c3nc(-c4ccc(C#N)cc4F)c4nc(C(F)(F)F)n(C)c(=O)c4n3)C[C@H](C)O2)ccn1 (single isomer, unassigned) [Example 9A]
13 | 75 to 110% | < 1 nM | COc1cc([C@H]2CN(c3nc(-c4ccc(C#N)cc4F)c4nc(C(F)(F)F)n(C)c(=O)c4n3)C[C@@H](C)O2)ccn1 (single isomer, unassigned) [Example 9B]
14 | 75 to 110% | < 1 nM | C[C@@H]1CN(c2nc(-c3ccc(C#N)cc3)c3nc(C(F)(F)F)n(C)c(=O)c3n2)C[C@H](c2cnn(C)c2)O1 (single isomer, unassigned) [Example 10A]
15 | 75 to 110% | 1 to 10 nM | C[C@H]1CN(c2nc(-c3ccc(C#N)cc3)c3nc(C(F)(F)F)n(C)c(=O)c3n2)C[C@@H](c2cnn(C)c2)O1 (single isomer, unassigned) [Example 10B]
16 | 75 to 110% | < 1 nM | C[C@@H]1CN(c2nc(-c3ccc(C#N)cc3)c3nc(C(F)(F)F)n(C)c(=O)c3n2)C[C@H](c2cnn(C3CC3)c2)O1 (single isomer, unassigned) [Example 11A]
17 | 75 to 110% | 1 to 10 nM | C[C@H]1CN(c2nc(-c3ccc(C#N)cc3)c3nc(C(F)(F)F)n(C)c(=O)c3n2)C[C@@H](c2cnn(C3CC3)c2)O1 (single isomer, unassigned) [Example 11B]
18 | 75 to 110% | < 1 nM | COc1cc([C@H]2CN(c3nc(-c4ccc(F)cc4F)c4nc(C(F)(F)F)n(C)c(=O)c4n3)CCO2)ccn1 (single isomer, unassigned) [Example 12A]
19 | 75 to 110% | 10 to 100 nM | COc1cc([C@@H]2CN(c3nc(-c4ccc(F)cc4F)c4nc(C(F)(F)F)n(C)c(=O)c4n3)CCO2)ccn1 (single isomer, unassigned) [Example 12B]
20 | 75 to 110% | < 1 nM | C[C@@H]1CN(c2cc3c(=O)n(C)c(C(F)(F)F)nc3c(-c3ccc(C#N)cc3F)n2)C[C@H](c2cnn(C3CC3)c2)O1 (single isomer, unassigned) [Example 13A]
21 | 75 to 110% | 1 to 10 nM | C[C@H]1CN(c2cc3c(=O)n(C)c(C(F)(F)F)nc3c(-c3ccc(C#N)cc3F)n2)C[C@@H](c2cnn(C3CC3)c2)O1 (single isomer, unassigned) [Example 13B]
22 | 75 to 110% | 1 to 10 nM | Cn1cc([C@H]2CN(c3cc4c(=O)n(C)c(C(F)(F)F)nc4c(-c4ccc(C#N)cc4F)n3)CC(F)(F)O2)cn1 (single isomer, unassigned) [Example 14A]
23 | 75 to 110% | 10 to 100 nM | Cn1cc([C@@H]2CN(c3cc4c(=O)n(C)c(C(F)(F)F)nc4c(-c4ccc(C#N)cc4F)n3)CC(F)(F)O2)cn1 (single isomer, unassigned) [Example 14B]
24 | 75 to 110% | < 1 nM | Cn1cc([C@H]2CN(c3nc(-c4ccc(C#N)cc4F)c4nc(C(F)(F)F)n(C)c(=O)c4n3)CCO2)cn1 [Example 1, (S)-3-fluoro-4-(7-methyl-2-(2-(1-methyl-1H-pyrazol-4-yl)morpholino)-8-oxo-6-(trifluoromethyl)-7,8-dihydropyrimido[5,4-d]pyrimidin-4-yl)benzonitrile]
25 | 75 to 110% | 1 to 10 nM | COc1ccc(-c2nc(N3CCO[C@@H](c4cnn(C)c4)C3)nc3c(=O)n(C)c(C(F)(F)F)nc23)c(F)c1 [Example 2, (S)-8-(2-fluoro-4-methoxyphenyl)-3-methyl-6-(2-(1-methyl-1H-pyrazol-4-yl)morpholino)-2-(trifluoromethyl)pyrimido[5,4-d]pyrimidin-4(3H)-one]
26 | < 75% | 1 to 10 nM | Cn1cc([C@H]2CN(c3nc(-c4ccc(C#N)cc4)c4nc(C(F)(F)F)n(C)c(=O)c4n3)CCO2)cn1 [Example 3, (S)-4-(7-methyl-2-(2-(1-methyl-1H-pyrazol-4-yl)morpholino)-8-oxo-6-(trifluoromethyl)-7,8-dihydropyrimido[5,4-d]pyrimidin-4-yl)benzonitrile]
27 | 75 to 110% | 1 to 10 nM | Cn1cc([C@H]2CN(c3cc4c(=O)n(C)c(C(F)(F)F)nc4c(-c4ccc(C#N)cc4F)n3)CCO2)cn1 [Example 15, (S)-3-fluoro-4-(3-methyl-6-(2-(1-methyl-1H-pyrazol-4-yl)morpholino)-4-oxo-2-(trifluoromethyl)-3,4-dihydropyrido[3,4-d]pyrimidin-8-yl)benzonitrile]
